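Abbreviation: GI50, concentration required for 50% inhibition of growth. The concentration for full growth arrest is given as TGI.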
Legend:
Test in all cases: NCI-60 cell line screen, 384-well format
786-0 renal = tested on: 786-0 renal
A498 renal = tested on: A498 renal
A549 NSCLC = tested on: A549 NSCLC
ACHN renal = tested on: ACHN renal
BT-549 breast = tested on: BT-549 breast
CAKI-1 renal = tested on: CAKI-1 renal
CCRF-CEM leukemia = tested on: CCRF-CEM leukemia
COLO 205 colon = tested on: COLO 205 colon
DU-145 prostate = tested on: DU-145 prostate
EKVX NSCLC = tested on: EKVX NSCLC
HCC-2998 colon = tested on: HCC-2998 colon
HCT-116 colon = tested on: HCT-116 colon
HCT-15 colon = tested on: HCT-15 colon
HL-60(TB) leukemia = tested on: HL-60(TB) leukemia
HOP-62 NSCLC = tested on: HOP-62 NSCLC
HOP-92 NSCLC = tested on: HOP-92 NSCLC
HS 578T breast = tested on: HS 578T breast
HT29 colon = tested on: HT29 colon
IGROV1 ovarian = tested on: IGROV1 ovarian
K-562 leukemia = tested on: K-562 leukemia
KM12 colon = tested on: KM12 colon
LOX IMVI melanoma = tested on: LOX IMVI melanoma
M14 melanoma = tested on: M14 melanoma
MALME-3M melanoma = tested on: MALME-3M melanoma
MCF7 breast = tested on: MCF7 breast
MDA-MB-231 breast = tested on: MDA-MB-231 breast
MDA-MB-435 melanoma = tested on: MDA-MB-435 melanoma
MDA-MB-468 breast = tested on: MDA-MB-468 breast
MOLT-4 leukemia = tested on: MOLT-4 leukemia
NCI-H226 lung = tested on: NCI-H226 lung
NCI-H23 lung = tested on: NCI-H23 lung
NCI-H322M lung = tested on: NCI-H322M lung
NCI-H460 NSCLC = tested on: NCI-H460 NSCLC
NCI-H522 lung = tested on: NCI-H522 lung
NCI/ADR-RES ovarian = tested on: NCI/ADR-RES ovarian
OVCAR-3 ovarian = tested on: OVCAR-3 ovarian
OVCAR-4 ovarian = tested on: OVCAR-4 ovarian
OVCAR-8 ovarian = tested on: OVCAR-8 ovarian
PC-3 prostate = tested on: PC-3 prostate
RPMI-8226 leukemia = tested on: RPMI-8226 leukemia
RXF 393 renal = tested on: RXF 393 renal
SF-268 CNS = tested on: SF-268 CNS
SF-295 CNS = tested on: SF-295 CNS
SF-539 CNS = tested on: SF-539 CNS
SK-MEL-28 melanoma = tested on: SK-MEL-28 melanoma
SK-MEL-5 melanoma = tested on: SK-MEL-5 melanoma
SK-OV-3 ovarian = tested on: SK-OV-3 ovarian
SN12C renal = tested on: SN12C renal
SNB-19 CNS = tested on: SNB-19 CNS
SNB-75 CNS = tested on: SNB-75 CNS
SR leukemia = tested on: SR leukemia
SW-620 colon = tested on: SW-620 colon
T-47D breast = tested on: T-47D breast
TK-10 renal = tested on: TK-10 renal
U251 glioblastoma = tested on: U251 glioblastoma
UACC-257 melanoma = tested on: UACC-257 melanoma
UACC-62 melanoma = tested on: UACC-62 melanoma
UO-31 renal = tested on: UO-31 renal

C=CC(=O)N[C@@H]1CN(c2nc(Nc3cn(C)nc3OC)c3ncn(C)c3n2)C[C@H]1F
GI50 ([…]-0 renal): 37.3 µM
TGI (786-0 renal): > 100 µM
GI50 (A498 renal): 27.6 µM
TGI (A498 renal): > 100 µM
GI50 (A549 NSCLC): 21.4 µM
TGI (A549 NSCLC): > 100 µM
GI50 (ACHN renal): 1.9 µM
TGI (ACHN renal): > 100 µM
GI50 (BT-549 breast): 25.4 µM
TGI (BT-549 breast): 70.9 µM
GI50 (CAKI-1 renal): 1.26 µM
TGI (CAKI-1 renal): > 100 µM
GI50 (CCRF-CEM leukemia): 15.5 µM
TGI (CCRF-CEM leukemia): 29.2 µM
GI50 (COLO 205 colon): 23 µM
TGI (COLO 205 colon): 53.8 µM
GI50 (DU-145 prostate): 13.8 µM
TGI (DU-145 prostate): 49.1 µM
GI50 (EKVX NSCLC): 0.338 µM
TGI (EKVX NSCLC): 24.9 µM
GI50 (HCC-2998 colon): 20.9 µM
TGI (HCC-2998 colon): 50 µM
GI50 (HCT-116 colon): 33.4 µM
TGI (HCT-116 colon): > 100 µM
GI50 (HCT-15 colon): 37.1 µM
TGI (HCT-15 colon): > 100 µM
GI50 (HL-60(TB) leukemia): 12.3 µM
TGI (HL-60(TB) leukemia): 25.1 µM
GI50 (HOP-62 NSCLC): 31.9 µM
TGI (HOP-62 NSCLC): > 100 µM
GI50 (HOP-92 NSCLC): 23.4 µM
TGI (HOP-92 NSCLC): > 100 µM
GI50 (HS 578T breast): 21.5 µM
TGI (HS 578T breast): 55.9 µM
GI50 (HT29 colon): 20.5 µM
TGI (HT29 colon): 54.4 µM
GI50 (IGROV1 ovarian): 3.27 µM
TGI (IGROV1 ovarian): 30.3 µM
GI50 (K-562 leukemia): 23.2 µM
TGI (K-562 leukemia): 52 µM
GI50 (KM12 colon): 39.2 µM
TGI (KM12 colon): > 100 µM
GI50 (LOX IMVI melanoma): 34.6 µM
TGI (LOX IMVI melanoma): > 100 µM
GI50 (M14 melanoma): 16 µM
TGI (M14 melanoma): 41.8 µM
GI50 (MALME-3M melanoma): 17.5 µM
TGI (MALME-3M melanoma): 60.2 µM
GI50 (MCF7 breast): 18 µM
TGI (MCF7 breast): 73.7 µM
GI50 (MDA-MB-231 breast): 24.3 µM
TGI (MDA-MB-231 breast): 98.4 µM
GI50 (MDA-MB-435 melanoma): 17.2 µM
TGI (MDA-MB-435 melanoma): 34.3 µM
GI50 (MDA-MB-468 breast): 0.0291 µM
TGI (MDA-MB-468 breast): 0.114 µM
GI50 (MOLT-4 leukemia): 16.6 µM
TGI (MOLT-4 leukemia): 30.8 µM
GI50 (NCI-H226 lung): 20.2 µM
TGI (NCI-H226 lung): 62.2 µM
GI50 (NCI-H23 lung): 16.2 µM
TGI (NCI-H23 lung): 35.6 µM
GI50 (NCI-H322M lung): 0.0896 µM
TGI (NCI-H322M lung): 12.7 µM
GI50 (NCI-H460 NSCLC): 21.9 µM
TGI (NCI-H460 NSCLC): 42.1 µM
GI50 (NCI-H522 lung): 0.0389 µM
TGI (NCI-H522 lung): 15.7 µM
GI50 (NCI/ADR-RES ovarian): > 100 µM
TGI (NCI/ADR-RES ovarian): > 100 µM
GI50 (OVCAR-3 ovarian): 12.3 µM
TGI (OVCAR-3 ovarian): 37.2 µM
GI50 (OVCAR-4 ovarian): 49.8 µM
TGI (OVCAR-4 ovarian): > 100 µM
GI50 (OVCAR-8 ovarian): 19.5 µM
TGI (OVCAR-8 ovarian): 58.4 µM
GI50 (PC-3 prostate): 39.4 µM
TGI (PC-3 prostate): > 100 µM
GI50 (RPMI-8226 leukemia): 18 µM
TGI (RPMI-8226 leukemia): 36.7 µM
GI50 (RXF 393 renal): 24.8 µM
TGI (RXF 393 renal): 83.8 µM
GI50 (SF-268 CNS): 29 µM
TGI (SF-268 CNS): > 100 µM
GI50 (SF-295 CNS): 41.5 µM
TGI (SF-295 CNS): > 100 µM
GI50 (SF-539 CNS): 29.9 µM
TGI (SF-539 CNS): 89.6 µM
GI50 (SK-MEL-28 melanoma): 28.5 µM
TGI (SK-MEL-28 melanoma): > 100 µM
GI50 (SK-MEL-5 melanoma): 19.2 µM
TGI (SK-MEL-5 melanoma): 49.4 µM
GI50 (SK-OV-3 ovarian): 12.2 µM
TGI (SK-OV-3 ovarian): > 100 µM
GI50 (SN12C renal): 34.2 µM
TGI (SN12C renal): > 100 µM
GI50 (SNB-19 CNS): 30 µM
TGI (SNB-19 CNS): > 100 µM
GI50 (SNB-75 CNS): 22.9 µM
TGI (SNB-75 CNS): 59.9 µM
GI50 (SR leukemia): 1.52 µM
TGI (SR leukemia): 3.2 µM
GI50 (SW-620 colon): 24.4 µM
TGI (SW-620 colon): 62.2 µM
GI50 (T-47D breast): 20.7 µM
TGI (T-47D breast): > 100 µM
GI50 (TK-10 renal): 0.319 µM
TGI (TK-10 renal): 39.1 µM
GI50 (U251 glioblastoma): 33.2 µM
TGI (U251 glioblastoma): > 100 µM
GI50 (UACC-257 melanoma): 33.6 µM
TGI (UACC-257 melanoma): > 100 µM
GI50 (UACC-62 melanoma): 23.1 µM
TGI (UACC-62 melanoma): > 100 µM
GI50 (UO-31 renal): 26.3 µM
TGI (UO-31 renal): > 100 µM
